Test system: high fat diet ZDF rats
Assay: NAFLD/NASH animal model, high fat diet ZDF rats
Format: in vivo, rat
Settings: high fat diet ZDF male rats; all three doses (0.3, 1.0, 3 mg/kg) PO q.d. for 5 weeks
Experimental: Twelve week old ZDF male rats (n=6 per group) were acclimated for 3 weeks prior to study initiation then fed with either a high fat (D12492+0.5% added cholesterol with 55% wt/vol fructose in drinking water) or low fat (DL12405J) diets. The compound of Example 10 above, vehicle, or pioglitizone were administered by oral gavage q.d. for 5 weeks as described in Table 1.
Body weights were recorded weekly, and blood samples were collected from all animals at the end of weeks 4, 5, 6 and 7 following an overnight fast, and triglycerides, cholesterol, AST, ALT, insulin, and BG were measured in singlet. After week 8, the livers were harvested from all animals and weighed. The left lobe was placed in 10% NBF for NASH scoring by PAI (H % E staining, Oil Red O staining and Sirius Red staining). One half of the right lobe was snap-frozen for qPCR (to quantify type 1 collagen, insulin receptor, IGF-1, ceramide synthase 2, sphingomyelin phosphodiesterase 3, MCP-1 and IL-6). The remaining right lobe was snap-frozen for estimation of liver triglycerides and cholesterol.

Structure (SMILES): CCc1oc(-c2ccc(OC)cc2)nc1CCOc1ccc2c(c1)CC[C@H]2CC(=O)O [Example 10, (S)-2-(5-(2-(5-ethyl-2-(4-methoxyphenyl)oxazol-4-yl)ethoxy)-2,3-dihydro-1H-inden-1-yl)acetic acid]
- protection from NASH like symptoms: protection from NASH like symptoms
